Measurements from PMC10287695, “Non-covalent inhibitors of thioredoxin glutathione reductase with schistosomicidal activity in vivo” (Nature Communications, 2023).
“And” between values parts separate entries of the source, which are not always exact repeats. Identical values can stand only once.

Tested on: TGR in newly transformed schistosomula (NTS)
Assay: TGR inhibition in NTS with TRFS-Green fluorescent probe;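 further: untreated reference is NTS exposed to TRFS-Green probe alone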
Type: cell-based, S. mansoni
Settings: NTS
Experimental: TGR inhibition in NTS was assessed using a fluorescent probe TRFS-Green (Medchemexpress)[43]. NTS prepared as previously described and cultured in M199 supplemented with 5.5 mM D-glucose, penicillin-streptomycin and 5% heat inactivated fetal bovine serum were incubated at 37 °C in a clear bottom flat well plate in a 5% CO2 incubator overnight. […] NTS were further treated with TRFS-Green (10 µM) for additional 4 h and rinsed with M199 medium to remove residual TRFS-Green. Fluorescence images were obtained using Keyence BZ-X800. The quantification of fluorescence intensity upon the uptake of TRFS-Green by NTS was performed by a fluorescent microplate imager (BioTek Cytation3) (excitation, 438 nm; emission, 538 nm) hourly for 5 h and after 24 h.

SMILES: C[C@@H]1[C@H]2C[C@@H](C[C@H]1NCc1nc3ccccc3n1C1CCCCCC1)C2(C)C [C8 (9VP173)]
- TGR inhibition visualized by TRFS-Green, Average (1hr, 5 µM): 11538.5
- TGR inhibition visualized by TRFS-Green, single replicate (1hr, 5 µM): 11535 and 11542
- TGR inhibition visualized by TRFS-Green, Average (1hr, 15 µM): 11107.5
- TGR inhibition visualized by TRFS-Green, single replicate (1hr, 15 µM): 11094 and 11121
- TGR inhibition visualized by TRFS-Green, Average (1hr, 30 µM): 7413.5
- TGR inhibition visualized by TRFS-Green, single replicate (1hr, 30 µM): 7434 and 7393
- TGR inhibition visualized by TRFS-Green, Average (2hr, 5 µM): 18549
- TGR inhibition visualized by TRFS-Green, single replicate (2hr, 5 µM): 18864 and 18234
- TGR inhibition visualized by TRFS-Green, Average (2hr, 15 µM): 17855.5
- TGR inhibition visualized by TRFS-Green, single replicate (2hr, 15 µM): 17877 and 17834
- TGR inhibition visualized by TRFS-Green, Average (2hr, 30 µM): 9154.5
- TGR inhibition visualized by TRFS-Green, single replicate (2hr, 30 µM): 9096 and 9213
- TGR inhibition visualized by TRFS-Green, Average (3hr, 5 µM): 28617
- TGR inhibition visualized by TRFS-Green, single replicate (3hr, 5 µM): 28491 and 28743
- TGR inhibition visualized by TRFS-Green, Average (3hr, 15 µM): 26316
- TGR inhibition visualized by TRFS-Green, single replicate (3hr, 15 µM): 26509 and 26123
- TGR inhibition visualized by TRFS-Green, Average (3hr, 30 µM): 12119
- TGR inhibition visualized by TRFS-Green, single replicate (3hr, 30 µM): 12004 and 12234
- TGR inhibition visualized by TRFS-Green, Average (4hr, 5 µM): 29563.5
- TGR inhibition visualized by TRFS-Green, single replicate (4hr, 5 µM): 29504 and 29623
- TGR inhibition visualized by TRFS-Green, Average (4hr, 15 µM): 26307.5
- TGR inhibition visualized by TRFS-Green, single replicate (4hr, 15 µM): 26632 and 25983
- TGR inhibition visualized by TRFS-Green, Average (4hr, 30 µM): 10530.5
- TGR inhibition visualized by TRFS-Green, single replicate (4hr, 30 µM): 10830 and 10231
- TGR inhibition visualized by TRFS-Green, Average (5hr, 5 µM): 37986
- TGR inhibition visualized by TRFS-Green, single replicate (5hr, 5 µM): 37989 and 37983
- TGR inhibition visualized by TRFS-Green, Average (5hr, 15 µM): 27117
- TGR inhibition visualized by TRFS-Green, single replicate (5hr, 15 µM): 26702 and 27532
- TGR inhibition visualized by TRFS-Green, Average (5hr, 30 µM): 12834
- TGR inhibition visualized by TRFS-Green, single replicate (5hr, 30 µM): 12855 and 12813
- TGR inhibition visualized by TRFS-Green, Average (24hr, 5 µM): 47666
- TGR inhibition visualized by TRFS-Green, single replicate (24hr, 5 µM): 46698 and 48634
- TGR inhibition visualized by TRFS-Green, Average (24hr, 15 µM): 29478.5
- TGR inhibition visualized by TRFS-Green, single replicate (24hr, 15 µM): 29985 and 28972
- TGR inhibition visualized by TRFS-Green, Average (24hr, 30 µM): 14283.5
- TGR inhibition visualized by TRFS-Green, single replicate (24hr, 30 µM): 14485 and 14082
